Data reported in patent US12077503B2, “Substituted cyclic amides and their use as herbicides” (FMC CORPORATION, priority 2015, dated 2024).
Like-named read-outs stand apart in the source and are kept apart here.

How the values were obtained:
Format in all cases: in vivo
Kochia (Kochia scoparia) [1] = assay: Test A postemergence; conditions: Bassia scoparia, post-emergence, 240 h; for pest or weed control at 125 g/ha: 125 g ai/ha, read-out: Kochia plant response rating (0 to 100 scale); for pest or weed control at 500 g/ha: 500 g ai/ha, visual injury, 0 to 100 scale (0 no effect, 100 complete control), approx. 10 d, read-out: Plant response rating, Kochia
Procedure, shortened: (§1)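 Preemergence soil spray on seeded pots or post-emergence spray on 1–2 leaf plants, in loam–sand blend. Greenhouse ~10 d. Visual rating 0–100 against untreated plants.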

[2] = tested on: ragweed (common ragweed, Ambrosia elatior); assay: Test A postemergence; conditions: Ambrosia artemisiifolia, post-emergence, 240 h; for pest or weed control at 125 g/ha: 125 g ai/ha, read-out: Ragweed plant response rating (0 to 100 scale); for pest or weed control at 500 g/ha: 500 g ai/ha, visual injury, 0 to 100 scale (0 no effect, 100 complete control), approx. 10 d, read-out: Plant response rating, Ragweed
Procedure, shortened: as §1

corn (Zea mays) = assay: Test A postemergence; conditions: Zea mays, post-emergence, 240 h; for plant injury at 125 g/ha: 125 g ai/ha, read-out: Corn plant response rating (0 to 100 scale); for Corn plant response rating (crop injury, 0 = no effect, 100 = complete kill) at 500 g/ha: 500 g ai/ha, visual injury, 0 to 100 scale (0 no effect, 100 complete control), approx. 10 d
Procedure, shortened: as §1

[3] = tested on: wheat (Triticum aestivum); assay: Test A postemergence; conditions: Triticum aestivum, post-emergence, 240 h, Postemergence; for plant injury at 500 g/ha: 500 g ai/ha, visual injury, 0 to 100 scale (0 no effect, 100 complete control), approx. 10 d, read-out: Plant response rating, Wheat
Procedure, shortened: as §1

[4] = tested on: barnyardgrass (Echinochloa crus-galli); assay: Test A postemergence; conditions: Echinochloa crus-galli, post-emergence, 240 h; for pest or weed control at 125 g/ha: 125 g ai/ha; for pest or weed control at 500 g/ha: 500 g ai/ha, visual injury, 0 to 100 scale (0 no effect, 100 complete control), approx. 10 d, read-out: Plant response rating, Barnyardgrass
Procedure, shortened: as §1

[5] = tested on: giant foxtail (Setaria faberii); assay: Test A postemergence; conditions: Setaria faberi, post-emergence, 240 h; for pest or weed control at 125 g/ha: 125 g ai/ha, read-out: Foxtail, Giant plant response rating (0 to 100 scale); for pest or weed control at 500 g/ha: 500 g ai/ha, visual injury, 0 to 100 scale (0 no effect, 100 complete control), approx. 10 d, read-out: Plant response rating, Foxtail, Giant
Procedure, shortened: as §1

[6] = tested on: pigweed (Amaranthus retroflexus); assay: Test A postemergence; conditions: Amaranthus retroflexus, post-emergence, 240 h; for pest or weed control at 125 g/ha: 125 g ai/ha, read-out: Pigweed plant response rating (0 to 100 scale); for pest or weed control at 500 g/ha: 500 g ai/ha, visual injury, 0 to 100 scale (0 no effect, 100 complete control), approx. 10 d, read-out: Plant response rating, Pigweed
Procedure, shortened: as §1

[7] = tested on: ryegrass, Italian (Italian ryegrass, Lolium multiflorum); assay: Test A postemergence; conditions: Lolium multiflorum, post-emergence, 240 h; for pest or weed control at 125 g/ha: 125 g ai/ha, read-out: Ryegrass, Italian plant response rating (0 to 100 scale); for pest or weed control at 500 g/ha: 500 g ai/ha, visual injury, 0 to 100 scale (0 no effect, 100 complete control), approx. 10 d, read-out: Plant response rating, Ryegrass, Italian
Procedure, shortened: as §1

[8] = tested on: Galium (catchweed bedstraw, Galium aparine); assay: Test A postemergence; conditions: Galium, post-emergence, 240 h; for pest or weed control at 125 g/ha: 125 g ai/ha, read-out: Galium plant response rating (0 to 100 scale); for pest or weed control at 500 g/ha: 500 g ai/ha, visual injury, 0 to 100 scale (0 no effect, 100 complete control), approx. 10 d, read-out: Plant response rating, Galium
Procedure, shortened: as §1

Kochia (Kochia scoparia) [9] = assay: Test A preemergence; conditions: Bassia scoparia, pre-emergence, 240 h, preemergence, 0 to 100 scale where 0 is no effect and 100 is complete control, read-out: Kochia plant response rating; for pest or weed control at 125 g/ha: 125 g ai/ha, visual injury rating, approximately 10 d; for pest or weed control at 500 g/ha: 500 g ai/ha
Procedure, shortened: as §1

[10] = tested on: ragweed (common ragweed, Ambrosia elatior); assay: Test A preemergence; conditions: Ambrosia artemisiifolia, pre-emergence, 240 h, preemergence, 0 to 100 scale where 0 is no effect and 100 is complete control, read-out: Ragweed plant response rating; for pest or weed control at 125 g/ha: 125 g ai/ha, visual injury rating, approximately 10 d; for pest or weed control at 500 g/ha: 500 g ai/ha
Procedure, shortened: as §1

[11] = tested on: barnyardgrass (Echinochloa crus-galli); assay: Test A preemergence; conditions: Echinochloa crus-galli, pre-emergence, 240 h, preemergence, 0 to 100 scale where 0 is no effect and 100 is complete control, read-out: Barnyardgrass plant response rating; for pest or weed control at 125 g/ha: 125 g ai/ha, visual injury rating, approximately 10 d; for pest or weed control at 500 g/ha: 500 g ai/ha
Procedure, shortened: as §1

[12] = tested on: giant foxtail (Setaria faberii); assay: Test A preemergence; conditions: Setaria faberi, pre-emergence, 240 h, preemergence, 0 to 100 scale where 0 is no effect and 100 is complete control, read-out: Foxtail, Giant plant response rating; for pest or weed control at 125 g/ha: 125 g ai/ha, visual injury rating, approximately 10 d; for pest or weed control at 500 g/ha: 500 g ai/ha
Procedure, shortened: as §1

[13] = tested on: pigweed (Amaranthus retroflexus); assay: Test A preemergence; conditions: Amaranthus retroflexus, pre-emergence, 240 h, preemergence, 0 to 100 scale where 0 is no effect and 100 is complete control, read-out: Pigweed plant response rating; for pest or weed control at 125 g/ha: 125 g ai/ha, visual injury rating, approximately 10 d; for pest or weed control at 500 g/ha: 500 g ai/ha
[14] = tested on: ryegrass, Italian (Italian ryegrass, Lolium multiflorum); assay: Test A preemergence; conditions: Lolium multiflorum, pre-emergence, 240 h, preemergence, 0 to 100 scale where 0 is no effect and 100 is complete control, read-out: Ryegrass, Italian plant response rating; for pest or weed control at 125 g/ha: 125 g ai/ha, visual injury rating, approximately 10 d; for pest or weed control at 500 g/ha: 500 g ai/ha
Procedure, shortened: as §1

[15] = Postemergence, visual rating about 10 d after treatment
[16] = postemergence, visual injury vs untreated controls after approx. 10 d, 0 = no effect, 100 = complete control

| SMILES | pest or weed control at 500 g/ha (Kochia (Kochia scoparia) [1]; Postemergence) | pest or weed control at 500 g/ha ([2]; Postemergence) | Corn plant response rating (crop injury, 0 = no effect, 100 = complete kill) at 500 g/ha (corn (Zea mays); Postemergence) | plant injury at 500 g/ha [3] | pest or weed control at 500 g/ha ([4]; Postemergence) | pest or weed control at 500 g/ha ([5]; Postemergence) | pest or weed control at 500 g/ha ([6]; Postemergence) | pest or weed control at 500 g/ha ([7]; Postemergence) | pest or weed control at 500 g/ha ([8]; Postemergence) | pest or weed control at 125 g/ha (Kochia (Kochia scoparia) [9]) | pest or weed control at 500 g/ha (Kochia (Kochia scoparia) [9]) | pest or weed control at 125 g/ha [10] | pest or weed control at 500 g/ha [10] | pest or weed control at 125 g/ha [11] | pest or weed control at 500 g/ha [11] | pest or weed control at 125 g/ha [12] | pest or weed control at 500 g/ha [12] | pest or weed control at 125 g/ha [13] | pest or weed control at 500 g/ha [13] | pest or weed control at 125 g/ha [14] | also measured |
| --- | --- | --- | --- | --- | --- | --- | --- | --- | --- | --- | --- | --- | --- | --- | --- | --- | --- | --- | --- | --- | --- |
| COc1cc([C@H]2CN(C)C(=O)[C@@H]2C(=O)Nc2ccccc2SC)ccc1F [Compound 1301] | 50% | 0% | 0% | 0% | 90% | 20% | 0% | 0% | 60% | 30% | 60% | 0% | 20% | 30% | 90% | 90% | 90% | 0% | 30% | 0% | pest or weed control at 125 g/ha (Kochia (Kochia scoparia) [1]; [15]): 0%; pest or weed control at 125 g/ha [2, 15]: 0%; plant injury at 125 g/ha (corn (Zea mays); [15]): 0%; plant injury at 125 g/ha ([3]; 125 g ai/ha, visual rating about 10 d after treatment, read-out: Wheat plant response rating (0 to 100 scale)): 0%; pest or weed control at 125 g/ha ([4]; Postemergence, visual rating about 10 d after treatment, read-out: Barnyardgrass plant response rating (0 to 100 scale, 0 no effect, 100 complete control)): 20%; pest or weed control at 125 g/ha [5, 15]: 20%; pest or weed control at 125 g/ha [6, 15]: 0%; pest or weed control at 125 g/ha [7, 15]: 0%; pest or weed control at 125 g/ha [8, 15]: 20%; pest or weed control at 500 g/ha [14]: 0% |
| CSc1ccccc1NC(=O)[C@H]1C(=O)NC[C@@H]1c1ccc2c(c1)OCO2 [Compound 1257] | 0% | 0% | 0% | 0% | 0% | 0% | 0% | 0% | 0% | 0% | 0% | 0% | 0% | 0% | 0% | 0% | 0% | 0% | 0% | 0% | pest or weed control at 125 g/ha (Kochia (Kochia scoparia) [1]; [16]): 0%; pest or weed control at 125 g/ha [2, 16]: 0%; plant injury at 125 g/ha (corn (Zea mays); [16]): 0%; pest or weed control at 125 g/ha ([4]; postemergence, visual injury vs untreated controls after approx. 10 d, 0 = no effect, 100 = complete control, read-out: Barnyardgrass plant response rating (0 to 100 scale)): 0%; pest or weed control at 125 g/ha [5, 16]: 0%; pest or weed control at 125 g/ha [6, 16]: 0%; pest or weed control at 125 g/ha [7, 16]: 0%; pest or weed control at 125 g/ha [8, 16]: 0%; pest or weed control at 500 g/ha [14]: 0% |
